Test results: patent publication US20220387365A1, “TUCARESOL DERIVATIVES AND USES THEREOF” (BeyondSpring Pharmaceuticals, Inc., priority 2019, published 2022)
Several values for one entry are separate records, joined by “and”; a condition that tells them apart may be missing. Equal values may be shown once.

Legend:
[1] = system: MC38 tumor cells; experiment: Tumor volume in subcutaneous syngeneic colorectal cancer model MC38 (Example 10); assay type: in vivo,  mice
Protocol: MC38 tumor cells were maintained in vitro with DMEM medium supplemented with 10% fetal bovine serum at 37° C. in an atmosphere of 5% CO2 in air. The cells in exponential growth phase were harvested and quantitated by cell counter before tumor inoculation. Each mouse was inoculated subcutaneously in the right lower flank with 1×10^6 MC38 tumor cells in 0.1 ml of PBS for tumor development.
The randomization was started when the mean tumor size reached approximately 145 mm^3. 108 mice were enrolled in the study. All animals were randomly allocated to 9 study groups. Randomization by tumor volume was performed based on “Matched distribution” method/ “Stratified” method (StudyDirector™ software, version 3.1.399.19)/randomized block design.
Tumor volumes were measured three times a week after randomization in two dimensions using a caliper, and the volume was expressed in mm^3 using the formula: V=(L×W×W)/2, where V is tumor volume, L is tumor length (the longest tumor dimension) and W is tumor width (the longest tumor dimension perpendicular to L). Dosing as well as tumor and body weight measurements were conducted in a Laminar Flow Cabinet. The body weights and tumor volumes were measured by using StudyDirector™ software (version 3.1.399.19).
The treatment was initiated following randomization.
Tumor growth inhibition (TGI): TGI% is an indication of antitumor activity, and expressed as: TGI (%)=100×(1−T/C). T and C are the mean tumor volume (or weight) of the treated and control groups, respectively, on a given day. Statistical analysis of the difference in mean tumor volume among the groups was conducted using the method time to survival event/euthanasia. Individual mice were euthanized when tumor volume exceeded 3000mm^3. The study was ultimately terminated at Day 36.
To compare tumor volumes of different groups at a pre-specified day, Bartlett's test was used to check the assumption of homogeneity of variance across all groups. When the p-value of Bartlett's test was >=0.05, one-way ANOVA was runto test overall equality of means across all groups. If the p-value of the one-way ANOVA was <0.05, was performed post hoc testing by running Tukey's HSD (honest significant difference) tests for all pairwise comparisons, and Dunnett's tests for comparing each treatment group with the vehicle group. When the p-value of Bartlett's test was <0.05, was run Kruskal-Wallis test to test overall equality of medians among all groups. If the p-value the Kruskal-Wallis test was <0.05, was performed post hoc testing by running Conover's non-parametric test for all pairwise comparisons or for comparing each treatment group with the vehicle group, both with single-step p-value adjustment.
In addition, pairwise comparisons were performed without multiple comparison correction and reported nominal/uncorrected p-values directly from Welch's t-test or Mann-Whitney U test. Specifically, Bartlett's test was used to check the assumption of homogeneity of variance for a pair of groups. When the p-value of Bartlett's test was >0.05, Welch's t-test was run, otherwise Mann-Whitney U test was run, to obtain nominal p-values. Survival curves were compared between groups by logrank (Mantel-Cox) test.
All statistical analyses had been done in R-a language and environment for statistical computing and graphics (version 3.3.1). All tests were two-sided unless otherwise specified, and p-values of <0.05 were regarded as statistically significant.
Kaplan-Meier plot showing percent survival of mice treated with G1 to G9. A mouse whose tumor volume exceeded 3000 mm^3 was sacrificed and scored in the Kaplan-Meier plot. Tables 13.1 and 13.2 below describes the tumor growth inhibition with data collected over 24 days. Tables 14.1 and 14.2 below describes mean body weight.

[2] = Pharmacokinetics of tucaresol after a single dose in healthy subjects
[3] = plasma, single dose 400 mg, single subjects
[4] = plasma, single dose 800 mg, single subjects
[5] = plasma, single dose 1200 mg, single subjects
[6] = plasma, single dose 2000 mg, single subjects
[7] = plasma, single dose 2800 mg, single subjects
[8] = plasma, single dose 3600 mg, single subjects

## O=Cc1c(OCc2ccc(C(=O)O)cc2)cccc1OC1O[C@H](CO)[C@@H](O)[C@H](O)[C@H]1O (some centres unmarked) [Compound C02]
[1]; 20 mg/kg C02 (Group 4) against anti-PD1 alone (Group 3), FIG. 5A
  antitumor efficacy of the combination (in words): significantly increased the antitumor efficacy of anti-PDA1 administered alone
[1]; Day 1
  Mean Tumor Volumes: 145 ± 5.46 mm^3
[1]; Day 4
  Mean Tumor Volumes: 215.49 ± 15.14 mm^3
[1]; Day 8
  Mean Tumor Volumes: 590.08 ± 59.54 mm^3
[1]; Day 10
  Mean Tumor Volumes: 1048.2 ± 89.19 mm^3
[1]; Day 12
  Mean Tumor Volumes: 1750.55 ± 154.11 mm^3
[1]; Day 15
  Mean Tumor Volumes: 2847.19 ± 242.97 mm^3

## O=Cc1c(O)cccc1OCc1ccc(C(=O)O)cc1 [Tucaresol]
[2]; human, in vivo, 2000 mg
  half-life: 9.25 days
[2]; human, in vivo, 2800 mg
  Tmax: 7.5 h
  half-life: 9.29 days
[2]; human, plasma, 200 mg, Cmax, single dose 200 mg, single subjects
  Cmax: 9.9 µg/mL
[2]; human, plasma, 200 mg, tmax, single dose 200 mg, single subjects
  Tmax: 5 h
[2]; human, plasma, 400 mg, AUC, single dose 400 mg, single subjects
  AUC: 2830 µg·h/mL
[2]; human, plasma, 400 mg, Cmax, single dose 400 mg, single subjects
  Cmax: 16.6 µg/mL
[2]; human, plasma, 400 mg, t1/2,z, single dose 400 mg, single subjects
  half-life: 5.54 days
[2]; human, plasma, 400 mg, tmax, single dose 400 mg, single subjects
  Tmax: 4.03 h
[2]; human, plasma, 800 mg, AUC, single dose 800 mg, single subjects
  AUC: 4890 µg·h/mL
[2]; human, plasma, 800 mg, Cmax, single dose 800 mg, single subjects
  Cmax: 28.3 µg/mL
[2]; human, plasma, 800 mg, t1/2,z, single dose 800 mg, single subjects
  half-life: 5.58 days
[2]; human, plasma, 800 mg, tmax, single dose 800 mg, single subjects
  Tmax: 4 h
[2]; human, plasma, 1200 mg, AUC, Mean, single dose 1200 mg
  AUC: 8860 µg·h/mL
[2]; human, plasma, 1200 mg, Cmax, Mean, single dose 1200 mg
  Cmax: 38.4 µg/mL
[2]; human, plasma, 1200 mg, Cmax, single dose 1200 mg, single subjects
  Cmax: 40.4 µg/mL
[2]; human, plasma, 1200 mg, t1/2,z, Mean, single dose 1200 mg
  half-life: 8.12 days
[2]; human, plasma, 1200 mg, tmax, Mean, single dose 1200 mg
  Tmax: 6.5 h
[2]; human, plasma, 1200 mg, tmax, single dose 1200 mg, single subjects
  Tmax: 8 h
[2]; human, plasma, 2000 mg, AUC, Mean, single dose 2000 mg
  AUC: 14800 µg·h/mL
[2]; human, plasma, 2000 mg, AUC, single dose 2000 mg, single subjects
  AUC: 16300 µg·h/mL
[2]; human, plasma, 2000 mg, Cmax, Mean, single dose 2000 mg
  Cmax: 58.6 µg/mL
[2]; human, plasma, 2000 mg, Cmax, single dose 2000 mg, single subjects
  Cmax: 60.8 µg/mL
[2]; human, plasma, 2000 mg, t1/2,z, Mean, single dose 2000 mg
  half-life: 9.54 days
[2]; human, plasma, 2000 mg, t1/2,z, single dose 2000 mg, single subjects
  half-life: 11.6 days
[2]; human, plasma, 2000 mg, tmax, Mean, single dose 2000 mg
  Tmax: 5.5 h
[2]; human, plasma, 2000 mg, tmax, single dose 2000 mg, single subjects
  Tmax: 6 h
[2]; human, plasma, 2800 mg, AUC, Mean, single dose 2800 mg
  AUC: 16900 µg·h/mL
[2]; human, plasma, 2800 mg, AUC, single dose 2800 mg, single subjects
  AUC: 12900 µg·h/mL
[2]; human, plasma, 2800 mg, Cmax, Mean, single dose 2800 mg
  Cmax: 73.7 µg/mL
[2]; human, plasma, 2800 mg, Cmax, single dose 2800 mg, single subjects
  Cmax: 56.6 µg/mL
[2]; human, plasma, 2800 mg, t1/2,z, single dose 2800 mg, single subjects
  half-life: 9.67 days
[2]; human, plasma, 2800 mg, tmax, single dose 2800 mg, single subjects
  Tmax: 6 h
[2]; human, plasma, 3600 mg, AUC, Mean, single dose 3600 mg
  AUC: 26600 µg·h/mL
[2]; human, plasma, 3600 mg, AUC, single dose 3600 mg, single subjects
  AUC: 25400 µg·h/mL
[2]; human, plasma, 3600 mg, Cmax, Mean, single dose 3600 mg
  Cmax: 95.8 µg/mL
[2]; human, plasma, 3600 mg, Cmax, single dose 3600 mg, single subjects
  Cmax: 81.7 µg/mL
[2]; human, plasma, 3600 mg, t1/2,z, Mean, single dose 3600 mg
  half-life: 12 days
[2]; human, plasma, 3600 mg, t1/2,z, single dose 3600 mg, single subjects
  half-life: 12.1 days
[2]; human, plasma, 3600 mg, tmax, Mean, single dose 3600 mg
  Tmax: 10 h
[2]; human, plasma, 3600 mg, tmax, single dose 3600 mg, single subjects
  Tmax: 6.08 h
[2]; plasma, single dose 200 mg, single subjects
  Cmax: 11.1 µg/mL
[2]; [3]
  AUC: 3562 µg·h/mL
  CL0: 2.35 mL/min and 1.86 mL/min
  Cmax: 19.6 µg/mL
  Tmax: 3.00 h
  t1/2,z: 190 h
[2]; [4]
  AUC: 5759 µg·h/mL
  CL0: 2.72 mL/min and 2.31 mL/min
  Cmax: 36.5 µg/mL
  Tmax: 4.08 h
  t1/2,z: 126 h
[2]; plasma, single dose 1200 mg
  CL0, Mean: 2.40 mL/min
[2]; [5]
  AUC: 12103 µg·h/mL and 9180 µg·h/mL and 5987 µg·h/mL and 8161 µg·h/mL
  CL0: 1.65 mL/min and 2.17 mL/min and 3.33 mL/min and 2.44 mL/min
  Cmax: 40.1 µg/mL and 39.3 µg/mL and 33.7 µg/mL
  t1/2,z: 252 h and 192 h and 123 h and 215 h
[2]; plasma, single dose 2000 mg
  CL0, Mean: 2.27 mL/min
[2]; [6]
  AUC: 16487 µg·h/mL and 14010 µg·h/mL and 12455 µg·h/mL
  CL0: 2.04 mL/min and 2.01 mL/min and 2.37 mL/min and 2.67 mL/min
  Cmax: 59.3 µg/mL and 57.1 µg/mL
  t1/2,z: 207 h and 209 h
[2]; plasma, single dose 2800 mg
  CL0, Mean: 2.85 mL/min
[2]; [7]
  AUC: 20871 µg·h/mL and 15635 µg·h/mL and 18018 µg·h/mL
  CL0: 3.61 mL/min and 2.23 mL/min and 2.97 mL/min and 2.58 mL/min
  Cmax: 87.7 µg/mL and 91.4 µg/mL and 59.3 µg/mL
  Tmax: 12.00 h
  t1/2,z: 240 h and 178 h and 241 h
[2]; plasma, single dose 3600 mg
  CL0, Mean: 2.26 mL/min
[2]; [8]
  AUC: 27818 µg·h/mL and 24131 µg·h/mL and 29116 µg·h/mL
  CL0: 2.36 mL/min and 2.15 mL/min and 2.48 mL/min and 2.05 mL/min
  Cmax: 86.3 µg/mL and 80.3 µg/mL and 134.7 µg/mL
  t1/2,z: 329 h and 265 h and 268 h
